Reference: publication PMC11200585, “Prospects for Prostate Cancer Chemotherapy: Cytotoxic Evaluation and Mechanistic Insights of Quinolinequinones with ADME/PK Profile” (Biomedicines, 2024)

What was measured:
Type in all cases: cell-based, human
[1] = test system: MDA-MB-231/ATCC; experiment: NCI-60 five-dose assay (breast cancer); settings: 48 h, SRB
[2] = test system: SK-MEL-28; experiment: NCI-60 one-dose screen (melanoma); settings: 10 µM single dose
Protocol: (§1) The obtained quinolinequinones were submitted to NCI, Bethesda, USA, and, as per standard protocol of NCI, all compounds were evaluated for their antiproliferative activity at single-dose assay (10 µM concentration in DMSO) on a panel of 60 cancer cell lines derived from leukemia, non-small-cell lung, colon, CNS, melanoma, ovarian, renal, prostate, and breast, as per protocol. Tested compounds were added to the microtiter culture plates followed by incubation for 48 h at 37 °C. Sulforhodamine B (SRB), a protein-binding dye, is used for endpoint determination. The percent of the growth of the treated cells was determined in comparison to the untreated control cells and the results of each tested compound were reported. Data from one-dose experiments pertain to the percentage growth at 10 μM [16, 17, 18].

[3] = test system: UACC-62; experiment: NCI-60 one-dose screen (melanoma); settings: 10 µM single dose, 48 h
Protocol: as §1

[4] = test system: MALME-3M; experiment: NCI-60 one-dose screen (melanoma); settings: 10 µM single dose, 48 h
Protocol: as §1

[5] = test system: UACC-257; experiment: NCI-60 one-dose screen (melanoma); settings: 10 µM single dose, 48 h
Protocol: as §1

[6] = test system: SK-MEL-5; experiment: NCI-60 one-dose screen (melanoma); settings: 10 µM single dose, 48 h
Protocol: as §1

[7] = test system: MDA-MB-435; experiment: NCI-60 one-dose screen (melanoma); settings: 10 µM single dose, 48 h
Protocol: as §1

[8] = test system: SK-MEL-2; experiment: NCI-60 one-dose screen (melanoma); settings: 10 µM single dose, 48 h
Protocol: as §1

[9] = test system: LOX IMVI; experiment: NCI-60 one-dose screen (melanoma); settings: 10 µM single dose, 48 h
Protocol: as §1

[10] = test system: K-562; experiment: NCI-60 one-dose screen (leukemia); settings: 10 µM single dose, 48 h
[11] = test system: RPMI-8226; experiment: NCI-60 one-dose screen (leukemia); settings: 10 µM single dose, 48 h
[12] = test system: CCRF-CEM; experiment: NCI-60 one-dose screen (leukemia); settings: 10 µM single dose, 48 h
[13] = test system: SR; experiment: NCI-60 one-dose screen (leukemia); settings: 10 µM single dose, 48 h
[14] = test system: HL-60(TB); experiment: NCI-60 one-dose screen (leukemia); settings: 10 µM single dose, 48 h
[15] = test system: NCI-H23; experiment: NCI-60 five-dose assay (non-small cell lung cancer); settings: 48 h, SRB
[16] = test system: MDA-MB-468; experiment: NCI-60 one-dose screen (breast cancer); settings: 10 µM single dose, 48 h
Protocol: as §1

[17] = test system: MDA-MB-231/ATCC; experiment: NCI-60 one-dose screen (breast cancer); settings: 10 µM single dose, 48 h
Protocol: as §1

[18] = test system: T-47D; experiment: NCI-60 one-dose screen (breast cancer); settings: 10 µM single dose, 48 h
Protocol: as §1

[19] = test system: BT-549; experiment: NCI-60 one-dose screen (breast cancer); settings: 10 µM single dose, 48 h
Protocol: as §1

[20] = test system: HS 578T; experiment: NCI-60 one-dose screen (breast cancer); settings: 10 µM single dose, 48 h
Protocol: as §1

[21] = test system: MCF7; experiment: NCI-60 one-dose screen (breast cancer); settings: 10 µM single dose, 48 h
Protocol: as §1

[22] = test system: CCRF-CEM; experiment: NCI-60 five-dose assay (leukemia); settings: 48 h, SRB
[23] = test system: SK-OV-3; experiment: NCI-60 five-dose assay (ovarian cancer); settings: 48 h, SRB
[24] = test system: K-562; experiment: NCI-60 five-dose assay (leukemia); settings: SRB
[25] = test system: MOLT-4; experiment: NCI-60 five-dose assay (leukemia); settings: 48 h, SRB
[26] = test system: UACC-257; experiment: NCI-60 five-dose assay (melanoma); settings: 48 h, SRB
[27] = test system: HOP-62; experiment: NCI-60 five-dose assay (non-small cell lung cancer); settings: 48 h, SRB
[28] = test system: SK-MEL-28; experiment: NCI-60 five-dose assay (melanoma); settings: 48 h, SRB
[29] = test system: HT29; experiment: NCI-60 five-dose assay (colon cancer); settings: SRB
[30] = test system: SW-620; experiment: NCI-60 five-dose assay (colon cancer); settings: 48 h, SRB
[31] = test system: SK-MEL-5; experiment: NCI-60 five-dose assay (melanoma); settings: 48 h, SRB
[32] = test system: RPMI-8226; experiment: NCI-60 five-dose assay (leukemia); settings: 48 h, SRB
[33] = test system: EKVX; experiment: NCI-60 five-dose assay (non-small cell lung cancer); settings: 48 h, SRB
[34] = test system: A549/ATCC; experiment: as above; settings: 48 h, SRB
[35] = test system: HCC-2998; experiment: NCI-60 five-dose assay (colon cancer); settings: 48 h, SRB
[36] = test system: SNB-19; experiment: NCI-60 five-dose assay (CNS cancer); settings: 48 h, SRB
[37] = test system: MCF7; experiment: NCI-60 five-dose assay (breast cancer); settings: 48 h, SRB
[38] = Homo sapiens, read-out: LC50 (the source's name)

## COc1ccccc1NC1=C(Cl)C(=O)c2nc(C)ccc2C1=O [AQQ1]
[1]
  TGI: 2.53 µM
[1]; Homo sapiens
  GI50: 1.19 µM
  LC50 (concentration killing 50% of cells): 5.37 µM
[2]; 48 h
  GP (growth percentage): 14.13%
[2]; Homo sapiens
  inhibition at 10 µM: 85.9%
[3]
  GP (growth percentage): −45.84%
[4]
  GP (growth percentage): −55.92%
[5]
  GP (growth percentage): −82.67%
[6]
  GP (growth percentage): −93.34%
[7]
  GP (growth percentage): −85.96%
[8]
  GP (growth percentage): 78.82%
[9]
  GP (growth percentage): −72.99%
[10]
  GP (growth percentage): −21.12%
[11]
  GP (growth percentage): −30.44%
[12]
  GP (growth percentage): −4.94%
[13]
  GP (growth percentage): −27.92%
[14]
  GP (growth percentage): −48.05%
[15]
  TGI: 3.30 µM
[15]; Homo sapiens
  GI50: 1.47 µM
[15]; [38]
  CC50: 7.45 µM
[16]
  GP (growth percentage): −79.74%
[17]
  GP (growth percentage): −57.30%
[18]
  GP (growth percentage): −44.73%
[19]
  GP (growth percentage): 83.54%
[20]
  GP (growth percentage): 72.15%
[21]
  GP (growth percentage): −60.38%
[22]
  TGI: 8.21 µM
[22]; Homo sapiens
  GI50: 1.94 µM
  LC50 (concentration killing 50% of cells): > 100 µM
[23]
  TGI: 27.5 µM
[23]; Homo sapiens
  GI50: 12.6 µM
  LC50 (50% net cell kill): 59.8 µM
[24]; 48 h
  TGI: 2.94 µM
[24]; Homo sapiens, K562, 48 h
  GI50: 0.29 µM
  LC50: > 100 µM
[25]
  TGI: 8.60 µM
[25]; Homo sapiens
  GI50: 2.27 µM
  LC50: > 100 µM
[26]
  TGI: 3.09 µM
[26]; Homo sapiens
  GI50: 1.57 µM
  LC50 (NCI-60 lethal concentration, 50% cell kill): 6.11 µM
[27]
  TGI: 6.98 µM
[27]; Homo sapiens
  GI50: 2.41 µM
  LC50 (concentration killing 50% of cells): 37.5 µM
[28]
  TGI: 3.34 µM
[28]; Homo sapiens
  GI50: 1.85 µM
  LC50: 6.02 µM
[29]; 48 h
  TGI: 4.49 µM
[29]; Homo sapiens, HT-29, 48 h
  GI50: 2.13 µM
  LC50 (concentration killing 50% of cells): 9.46 µM
[30]
  TGI: 3.73 µM
[30]; Homo sapiens
  GI50: 1.84 µM
  LC50: 7.56 µM
[31]
  TGI: 3.17 µM
[31]; Homo sapiens
  GI50: 1.75 µM
[31]; [38]
  CC50: 5.74 µM
[32]
  TGI: 4.61 µM
[32]; Homo sapiens
  GI50: 1.57 µM
[32]; [38]
  CC50: > 100 µM
[33]
  TGI: 3.05 µM
[33]; Homo sapiens
  GI50: 1.61 µM
[33]; [38]
  CC50: 5.78 µM
[34]
  TGI: 6.24 µM
[34]; Homo sapiens
  GI50: 2.44 µM
[34]; [38]
  CC50: 45.2 µM
[35]
  TGI: 3.46 µM
[35]; Homo sapiens
  GI50: 1.87 µM
  LC50 (concentration killing 50% of cells): 6.42 µM
[36]
  TGI: 3.72 µM
[36]; Homo sapiens
  GI50: 1.81 µM
[36]; [38]
  CC50: 7.64 µM
[37]
  TGI: 4.49 µM
[37]; Homo sapiens
  GI50: 1.78 µM
  LC50: > 100 µM
